Experimental data from patent publication US4137314A, “7-Dithioacetamido cephalosporins and pharmaceutical compositions and methods employing them having antibacterial activity” (SmithKline Corporation, priority 1977, dated 1979).
Converted amounts (≈) assume the structure as drawn. Where two headings read alike, the source gives them in different places.

Columns and labels:
Test in all cases: MIC, standard agar inclusion method
Format in all cases: cell-based
[1] = system: S. aureus SK23390; conditions: Staphylococcus aureus
[2] = system: Salmonella paratuphi ATCC12176
[3] = system: Shegella paradysenteriae HH117
[4] = system: E. coli SK12140; conditions: Escherichia coli
[5] = system: Entero. aerogenes 13048; conditions: Klebsiella aerogenes
[6] = system: Serratia marc. ATCC13880
[7] = system: Kleb. pneumo. SK1200
[8] = system: Strep. faecalis HH34358; conditions: Enterococcus faecalis
[9] = system: Kleb. pneumo. SK4200
[10] = system: Pseudo aeruginosa HH63
[11] = system: S. aureus Villaluz; conditions: Staphylococcus aureus
[12] = system: Entero. cloacae HH31254; conditions: Enterobacter cloacae
[13] = system: Proteus morgani 179
[14] = system: E. coli HH33779; conditions: Escherichia coli
[15] = system: S. aureus HH127; conditions: Staphylococcus aureus
[16] = Entero. aerogenes 13048, agar inclusion, read-out: MIC
[17] = Entero. cloacae HH31254, agar inclusion, read-out: MIC

SMILES: CSSCC(=O)NC1C(=O)N2C(C(=O)O)=C(CSc3nnnn3C)CSC12 (stereo not drawn) [A, 7-methyldithioacetamido-3-(1-methyltetrazol-5-yl-thiomethyl)-3-cephem-4-carboxylic acid]
- MIC [1]: 0.4 µg/mL (≈ 0.892 µM)
- MIC [2]: 0.8 µg/mL (≈ 1.78 µM)
- MIC [3]: 0.8 µg/mL (≈ 1.78 µM)
- MIC [4]: 3.1 µg/mL (≈ 6.91 µM)
- MIC [5, 16]: 3.1 µg/mL (≈ 6.91 µM)
- MIC [6]: > 200 µg/mL
- MIC [7]: 0.8 µg/mL (≈ 1.78 µM)
- MIC [8]: 12.5 µg/mL (≈ 27.9 µM)
- MIC [9]: 3.1 µg/mL (≈ 6.91 µM)
- MIC [10]: > 200 µg/mL
- MIC [11]: 6.3 µg/mL (≈ 14 µM)
- MIC [12, 17]: 1.6 µg/mL (≈ 3.57 µM)
- MIC [13]: > 200 µg/mL
- MIC [14]: 6.3 µg/mL (≈ 14 µM)
- MIC [15]: 0.4 µg/mL (≈ 0.892 µM)

SMILES: Cn1nnnc1SCC1=C(C(=O)O)N2C(=O)C(NC(=O)CSSC(Cl)(Cl)Cl)C2SC1 (stereo not drawn) [B, 7-(trichloromethyldithioacetamido)-3-(1-methyltetrazol-5-ylthiomethyl)-3-cephem-4-carboxylic acid]
- MIC [1]: 3.1 µg/mL (≈ 5.62 µM)
- MIC [2]: 6.3 µg/mL (≈ 11.4 µM)
- MIC [3]: 12.5 µg/mL (≈ 22.6 µM)
- MIC [4]: 12.5 µg/mL (≈ 22.6 µM)
- MIC [5, 16]: 100 µg/mL (≈ 181 µM)
- MIC [6]: > 200 µg/mL
- MIC [7]: 6.3 µg/mL (≈ 11.4 µM)
- MIC [8]: 50 µg/mL (≈ 90.6 µM)
- MIC [10]: > 200 µg/mL
- MIC [11]: 50 µg/mL (≈ 90.6 µM)
- MIC ([12]; HH31254): 12.5 µg/mL (≈ 22.6 µM)
- MIC [13]: > 200 µg/mL
- MIC [14]: 100 µg/mL (≈ 181 µM)
- MIC [15]: 3.1 µg/mL (≈ 5.62 µM)

SMILES: Cn1nnnc1SCC1=C(C(=O)O)N2C(=O)C(NC(=O)CSSC(F)(F)F)C2SC1 (stereo not drawn) [C]
- MIC [1]: 3.1 µg/mL (≈ 6.17 µM)
- MIC [2]: 6.3 µg/mL (≈ 12.5 µM)
- MIC [3]: 3.1 µg/mL (≈ 6.17 µM)
- MIC [4]: 12.5 µg/mL (≈ 24.9 µM)
- MIC [5, 16]: 100 µg/mL (≈ 199 µM)
- MIC [6]: > 100 µg/mL
- MIC [7]: 3.1 µg/mL (≈ 6.17 µM)
- MIC [8]: 50 µg/mL (≈ 99.5 µM)
- MIC [9]: 6.3 µg/mL (≈ 12.5 µM)
- MIC [10]: > 100 µg/mL
- MIC [11]: 6.3 µg/mL (≈ 12.5 µM)
- MIC [12, 17]: 12.5 µg/mL (≈ 24.9 µM)
- MIC ([13]; Proteus morgani 179, agar inclusion, read-out: MIC): > 100 µg/mL
- MIC [14]: 25 µg/mL (≈ 49.7 µM)
- MIC [15]: 3.1 µg/mL (≈ 6.17 µM)

SMILES: Cc1nnc(SCC2=C(C(=O)O)N3C(=O)[C@@H](NC(=O)Cn4cnnn4)[C@H]3SC2)s1 [Cefazolin, reference compound]
- MIC [1]: 0.4 µg/mL (≈ 0.88 µM)
- MIC [2]: 1.6 µg/mL (≈ 3.52 µM)
- MIC [3]: 0.8 µg/mL (≈ 1.76 µM)
- MIC [4]: 1.6 µg/mL (≈ 3.52 µM)
- MIC [5]; 13048: 1.6 µg/mL (≈ 3.52 µM)
- MIC [6]: > 200 µg/mL
- MIC [8]: 6.3 µg/mL (≈ 13.9 µM)
- MIC [9]: 3.1 µg/mL (≈ 6.82 µM)
- MIC [10]: > 200 µg/mL
- MIC [11]: 25 µg/mL (≈ 55 µM)
- MIC [13]: > 200 µg/mL
- MIC [14]: 3.1 µg/mL (≈ 6.82 µM)
- MIC [15]: 0.4 µg/mL (≈ 0.88 µM)

SMILES: CSSCC(=O)NC1C(=O)N2C(C(=O)O)=C(COC(C)=O)CSC12 (stereo not drawn) [D, 7-(methyldithioacetamido)-cephalosporanic acid]
- MIC [1]: 0.2 µg/mL (≈ 0.51 µM)
- MIC [2]: 6.3 µg/mL (≈ 16.1 µM)
- MIC [3]: 1.6 µg/mL (≈ 4.08 µM)
- MIC [4]: 6.3 µg/mL (≈ 16.1 µM)
- MIC [5, 16]: 25 µg/mL (≈ 63.7 µM)
- MIC [6]: > 200 µg/mL
- MIC [7]: 3.1 µg/mL (≈ 7.9 µM)
- MIC [8]: 12.5 µg/mL (≈ 31.8 µM)
- MIC [9]: 3.1 µg/mL (≈ 7.9 µM)
- MIC [10]: > 200 µg/mL
- MIC [11]: 3.1 µg/mL (≈ 7.9 µM)
- MIC [12, 17]: 25 µg/mL (≈ 63.7 µM)
- MIC [13]: > 200 µg/mL
- MIC [14]: 12.5 µg/mL (≈ 31.8 µM)
- MIC [15]: 0.2 µg/mL (≈ 0.51 µM)
